Data as given in PMC7503370, “Cellular Signaling and Anti-Apoptotic Effects of Prolactin-Releasing Peptide and Its Analog on SH-SY5Y Cells” (International Journal of Molecular Sciences, 2020).

Tested on: SH-SY5Y cells
Assay: Pretreatment with peptides before MG stress, MTT cell viability
Assay type: cell-based, human
Details: 4 h pretreatment 1 × 10^−7 M, then 1.2 mM MG 16 h, n = 3, octuplicates
Procedure: Figure 5 PrRP31 and its analog increased cell viability during the MG-induced stress. Pre-treatment for 4 h with PrRP31 and palm^11-PrRP31 at a concentration of: (a) 1 × 10^−5 M; or (b) 1 × 10^−7 M, followed by exposure to 1.2 mM MG for 16 h in SH-SY5Y cells. Pre-treatment for 4 h with PrRP31 and palm^11-PrRP31 at a concentration of: (c) 1 × 10^−5 M; (d) 1 × 10^−7 M in SH-SY5Y cells; or (e) 1 × 10^−5 M in rat primary neuronal culture, followed by exposure to 0.6 mM MG for 16 h in SH-SY5Y cells. MG toxicity was measured with MTT assay. Data are presented as the means ± SEM as a percentage of control cells treated with vehicle analyzed by a Student’s t-test vs. 0.6 mM MG # p < 0.5, ## p < 0.01, ### p < 0.001, #### p < 0.0001 (n = 3, each sample in octuplicates). Control vs. 0.6 mM MG analyzed by a Student´s t-test, * p < 0.5, ** p < 0.01.
The MTT test was used to measure cell viability. The MTT reagent was dissolved in RPMI-1640 without phenol red. Cells were incubated for 2 h with a 10% solution of MTT at 37 °C. Living cells converted soluble MTT to insoluble formazan, which was subsequently dissolved in DMSO. The absorbance was measured at a wavelength of 560 nm.
For this assay, cells were cultured in 96-well plates at a density of 40,000 cells per well. The growth medium was exchanged for serum-free DMEM 16 h before the experiment. […]

## CC[C@H](C)[C@H](NC(=O)CNC(=O)[C@H](CCCNC(=N)N)NC(=O)[C@H](CO)NC(=O)[C@H](C)NC(=O)[C@H](Cc1ccc(O)cc1)NC(=O)[C@H](Cc1c[nH]c2ccccc12)NC(=O)[C@H](C)NC(=O)[C@@H]1CCCN1C(=O)[C@H](CC(N)=O)NC(=O)[C@@H](NC(=O)[C@H](CC(=O)O)NC(=O)[C@@H]1CCCN1C(=O)[C@@H](NC(=O)[C@H](CCCNC(=N)N)NC(=O)[C@@H](NC(=O)[C@H](CCC(=O)O)NC(=O)[C@H](CCSC)NC(=O)[C@H](CO)NC(=O)[C@H](Cc1c[nH]cn1)NC(=O)[C@H](CCCNC(=N)N)NC(=O)[C@H](Cc1c[nH]cn1)NC(=O)[C@@H](NC(=O)[C@H](CCCNC(=N)N)NC(=O)[C@@H](N)CO)[C@@H](C)O)[C@@H](C)CC)[C@@H](C)O)[C@@H](C)CC)C(=O)N[C@@H](CCCNC(=N)N)C(=O)N1CCC[C@H]1C(=O)N[C@H](C(=O)NCC(=O)N[C@@H](CCCNC(=N)N)C(=O)N[C@@H](Cc1ccccc1)C(N)=O)C(C)C [PrRP31]
  cell viability (% of control cells): not
